{"source": "patent US20020081686A1", "about": "(priority 1999, published 2002)", "tested_on": "PPK2", "conditions": "1 mM Pi", "text": "PPK2 has been detected in crude cell extracts of K.pneumoniae and E. coli.", "data": [{"substance": "phosphate", "values": [{"measurement": "inhibition of PPK2", "result": "about 90%"}]}]}
